Laboratory results: US4568685A, “N-[(1H-1,2,4-Triazol-1-yl)alkyl]-arylamides” (American Cyanamid Company, priority 1984, dated 1986)
Counter-ions that a name gives are not always drawn.

These molecules were tested on spontaneously hypertensive rats (assay: Hypotensive activity in spontaneously hypertensive rats (mean arterial blood pressure)). Details: gavage, about 100 mg/kg or less, two doses 24 hours apart, measured at about 28 hours; average MABP of the SHR 170 ±1.5 mm Hg; number of rats in parentheses.
Format: in vivo, spontaneously hypertensive rats of the Okamoto strain
Description: Hypotensive Activity in Spontaneously Hypertensive Rats
The novel compounds of the present invention are active hypotensive agents and were tested for hypotensive activity by the method of P. S. Chan and D. Poorvin, Clinical and Experimental Hypertension, 1 (6), 817-830 (1979). Male, 16 week old, spontaneously hypertensive rats of the Okamoto strain, from Taconic Farms, Germantown, N.Y., having an average mean arterial blood pressure of 170 ±1.5 mm of mercury are used in the test. One to 3 rats are used per test compound. A rat is dosed by gavage with a test compound, suspended in approximately 2% pre-boiled starch at a concentration of about 50 mg/ml, at a dose of about 100 mg/kg of body weight or less, with approximately 0.9% sodium chloride loading at a dose of about 25 ml/kg of body weight. A second identical dose of the test compound, without sodium chloride loading, is given about 24 hours later. At about 28 hours after the initial dose the mean arterial blood pressure is measured by the method of Chan and Poorvin vide supra. The procedure is repeated in a second and third rat when necessary.

| SMILES | MABP (mean arterial blood pressure) [mm Hg] |
| --- | --- |
| O=C(NCCCn1cncn1)c1ccc(Cl)c(Cl)c1 [Example 12, 3,4-Dichloro-N-[3-(1H-1,2,4-triazol-1-yl)propyl]benzamide] | 150 |
| O=C(NCCCn1cncn1)c1ccccc1 [Example 24, N--[3-(1H--1,2,4-triazol-1-yl)propyl]benzamide] | 124 |
| O=C(NCCCCn1cncn1)c1ccc(Cl)c(Cl)c1 [Example 5, 3,4-Dichloro-N-[4-(1H-1,2,4-triazol-1-yl)butyl]benzamide] | 141 |
| O=C(C=Cc1ccc(Cl)cc1)NCCCn1cncn1 [Example 29, 3-(4-chlorophenyl)-N--[3-(1H--1,2,4-triazol-1-yl)propyl]-2-propenamide] | 137 |
| O=C(NCCCCn1cncn1)c1ccccc1-c1ccccc1 [Example 6, N--[4-(1H--1,2,4-triazol-1-yl)butyl] [1,1'-biphenyl]-2-carboxamide, fumarate] | 145 |
| O=C(NCCCCn1cncn1)c1ccc(Br)cc1 [Example 8, 4-bromo-N--[4-(1H--1,2,4-triazol-1-yl)butyl]benzamide] | 137 |
| O=C1c2ccccc2C(=O)N1CCCCn1cncn1 [2-[4-(1H-1,2,4-triazol-1-yl)butyl]-1H-isoindol-1,3(2H)-dione] | 119 |
| O=C(NCCCn1cncn1)c1ccc(I)cc1 [Example 27, 4-Iodo-N-[3-(1H-1,2,4-triazol-1-yl)propyl]benzamide] | 128 |
| N#Cc1ccc(C(=O)NCCCn2cncn2)cc1 [Example 19, 4-cyano-N--[3-(1H--1,2,4-triazol-1-yl)propyl]benzamide] | 119 |
| CC(C)(C)c1ccc(C(=O)NCCCn2cncn2)cc1 [Example 13, 4-(1,1-dimethylethyl)-N--[3-(1H--1,2,4-triazol-1-yl)propyl]benzamide] | 123 |
| CN(C)c1ccc(C(=O)NCCCn2cncn2)cc1 [Example 37, 4-(dimethylamino)-N--[3-(1H--1,2,4-triazol-1-yl)propyl]benzamide] | 117 |
| CS(=O)(=O)c1ccc(C(=O)NCCCn2cncn2)cc1 [Example 32, 4-(methylsulfonyl)-N--[3-(1H--1,2,4-triazol-1-yl)propyl]benzamide] | 110 |
| Cc1ccc(C(=O)NCCCn2cncn2)cc1 [Example 21, 4-methyl-N--[3-(1H--1,2,4-triazol-1-yl)propyl]benzamide] | 145 |
| O=C(Cc1cccc2ccccc12)NCCCCn1cncn1 [N--[4-(1H--1,2,4-triazol-1-yl)butyl]-1-naphthalene acetamide, fumarate] | 134 |
| O=C(NCCCn1cncn1)c1ccc(Br)cc1 [Example 23, 4-bromo-N--[3-(1H--1,2,4-triazol-1-yl)propyl]benzamide] | 147 |
